Laboratory results reported in patent US8383622B2 (priority 2007, dated 2013).

Columns and labels:
Mouse 11β-HSD1 = Mouse 11β-HSD1 (Mus musculus, UniProt P50172); assay: Evaluation of compound against mouse 11β-HSD1 (HTRF assay, 11-dehydrocorticosterone substrate); assay type: biochemical; conditions: 11-dehydrocorticosterone 2 μM, 37° C. 2 hours
Description: Evaluation Method of 11β-HSD1 Inhibitor (Evaluation of Compound Against Mouse 11β-HSD1)
(§1) After preincubating an inhibitor in a reaction solution consisting of 50 mM sodium phosphate buffer (pH 7.5), bovine serum albumin (1 mg/mL), NADPH (0.42 mg/mL), glucose-6-phosphate (1.26 mg/mL), glucose-6-phosphate dehydrogenase, and an enzyme at room temperature for 30 minutes, 11-dehydrocorticosterone (2 μM) was added as a substrate (total amount 10 μL). After reacting at 37° C. for 2 hours, an XL-665-labeled cortisol solution (5 μL), and a Cryptate-labeled anti-cortisol antibody solution (5 μL) were added. The reaction was performed at room temperature for 2 hours, and fluorescence intensity (HTRF method) was measured.
A corticosterone concentration was calculated from a standard curve prepared using a known concentration of corticosterone for each assay.
Taking a concentration of corticosterone generated in the absence of the inhibitor as a control value, 50% inhibitory concentration (IC50 value) of the inhibitor against 11β-HSD1 was calculated from an inhibition curve plotting inhibition rate against the control value at each concentration of the inhibitor.

Human 11β-HSD1 = Human 11β-HSD1 (Homo sapiens, UniProt P28845); assay: Evaluation of compound against human 11β-HSD1 (HTRF cortisol assay, cortisone substrate); assay type: biochemical; conditions: cortisone 5 μM, 37° C. 2 hours
Chain of Human 11β-HSD1 (P28845 whole entry): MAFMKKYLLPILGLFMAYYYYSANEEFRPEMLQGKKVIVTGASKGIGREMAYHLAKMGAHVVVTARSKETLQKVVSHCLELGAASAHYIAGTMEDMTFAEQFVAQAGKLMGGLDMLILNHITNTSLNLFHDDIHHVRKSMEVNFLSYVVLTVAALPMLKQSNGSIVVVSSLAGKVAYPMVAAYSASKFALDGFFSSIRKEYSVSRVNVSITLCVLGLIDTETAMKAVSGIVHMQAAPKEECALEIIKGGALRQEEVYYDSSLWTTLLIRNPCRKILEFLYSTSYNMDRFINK
Description: Evaluation Method of […] Inhibitor (Evaluation of Compound Against Human 11β-HSD1)
as §1, with “dehydrogenase” for “dehydrogenase,”, “30), (Inutes, cortisone (5” for “30 minutes, 11-dehydrocorticosterone (2”, “measured. A cortisol concentration was calculated from a standard curve prepared using a known concentration of cortisol for each assay.” for “measured.”
Taking a concentration of cortisol generated in the absence of the inhibitor as a control value, 50% inhibitory concentration (IC50 value) of the inhibitor against 11β-HSD1 was calculated from an inhibition curve plotting inhibition rate against the control value at each concentration of an inhibitor.

Chain of Mouse 11β-HSD1 (P50172 whole entry): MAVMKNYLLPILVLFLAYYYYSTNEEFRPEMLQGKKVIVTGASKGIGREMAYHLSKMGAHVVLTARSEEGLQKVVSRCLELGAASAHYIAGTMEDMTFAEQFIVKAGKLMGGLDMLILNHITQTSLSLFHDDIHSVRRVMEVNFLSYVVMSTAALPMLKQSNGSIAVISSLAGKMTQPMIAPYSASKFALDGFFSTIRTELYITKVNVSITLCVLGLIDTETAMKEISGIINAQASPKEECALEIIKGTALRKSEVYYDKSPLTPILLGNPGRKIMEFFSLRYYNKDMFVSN

Row | SMILES | IC50 (Mouse 11β-HSD1) | IC50 (Human 11β-HSD1)
1 | CC(C)COc1c(C(=O)N[C@H]2C3CC4CC2C[C@](OC(N)=O)(C4)C3)cnn1/C=C/C(C)(C)C#N [Compound I-7] | 0.41 nM | 3.4 nM
2 | CC(C)COc1c(C(=O)NC2C3CC4CC2CC(O)(C4)C3)cnn1C=CC(C)(C)NC(=O)COCc1ccccc1 (stereo not shown) [Compound I-77] | 0.23 nM | 0.62 nM
3 | CC(=O)NC(C)(C)/C=C/n1ncc(C(=O)N[C@H]2C3CC4CC2C[C@](CO)(C4)C3)c1CC(C)C [Compound I-121] | 4.9 nM | 154 nM
4 | COC(=O)NC(C)(C)/C=C/n1ncc(C(=O)N[C@H]2C3CC4CC2C[C@](F)(C4)C3)c1-c1ccccc1 [Compound I-128] | 5.5 nM | 62.4 nM
5 | CC(=O)NC(C)(C)/C=C/n1ncc(C(=O)N[C@H]2C3CC4CC2C[C@](CO)(C4)C3)c1-c1ccccc1 [Compound I-131] | 1.4 nM | 20.8 nM
6 | COC(=O)NC(C)(C)/C=C/n1ncc(C(=O)N[C@H]2C3CC4CC2C[C@](O)(C4)C3)c1-n1cccn1 [Compound I-133] | 0.52 nM | 75.6 nM

Next, values leading:

Row | IC50 (Mouse 11β-HSD1) | IC50 (Human 11β-HSD1) | SMILES
7 | 1.7 nM | 11 nM | CC(C)COc1c(C(=O)N[C@H]2C3CC4CC2C[C@](OC(N)=O)(C4)C3)cnn1/C=C/C(C)(C)NS(C)(=O)=O [Compound I-9]
8 | 1 nM | 1.2 nM | CC(C)COc1c(C(=O)N[C@H]2C3CC4CC2C[C@](O)(C4)C3)cnn1/C=C/C(C)(C)NC(=O)CCC1CCCC1 [Compound I-36]
9 | 0.21 nM | 1.4 nM | CC(C)COc1c(C(=O)N[C@H]2C3CC4CC2C[C@](CO)(C4)C3)cnn1/C=C/C(C)(C)C(N)=O [Compound I-63]
10 | 3 nM | 88.1 nM | COC(=O)NC(C)(C)/C=C/n1ncc(C(=O)N[C@H]2C3CC4CC2C[C@](OC(N)=O)(C4)C3)c1-c1ccccc1 [Compound I-127]
11 | 0.37 nM | 64.4 nM | COC(=O)NC(C)(C)/C=C/n1ncc(C(=O)NC2C3CC4CC2CC(COC(N)=O)(C4)C3)c1-n1cccn1 (stereo not shown) [Compound I-139]
